# According to PMC7587962, “Evaluation of Cytotoxicity and α-Glucosidase Inhibitory Activity of Amide and Polyamino-Derivatives of Lupane Triterpenoids” (Molecules, 2020):
# Where two headings read alike, the source gives them in different places.
# Assays:
# SW-620 = assay: NCI-60 SRB screen: colon cancer SW-620; type: cell-based; conditions: Homo sapiens, 48 h, SW-620
# BT-549 = assay: NCI-60 SRB screen: breast cancer BT-549; type: cell-based, human; conditions: BT-549
# MDA-MB-231/ATCC = assay: NCI-60 SRB screen: breast cancer MDA-MB-231/ATCC; type: cell-based; conditions: Homo sapiens, 48 h
# OVCAR-3 = assay: NCI-60 SRB screen: ovarian cancer OVCAR-3; type: cell-based, human; conditions: OVCAR-3
# SK-MEL-5 = assay: NCI-60 SRB screen: melanoma SK-MEL-5; type: cell-based, human; conditions: SK-MEL-5
# SK-OV-3 = assay: NCI-60 SRB screen: ovarian cancer SK-OV-3; type: cell-based, human; conditions: SK-OV-3
# SK-MEL-28 = assay: NCI-60 SRB screen: melanoma SK-MEL-28; type: cell-based, human; conditions: SK-MEL-28
# UACC-62 = assay: NCI-60 SRB screen: melanoma UACC-62; type: cell-based, human; conditions: UACC-62
# NCI-H226 = assay: NCI-60 SRB screen: non-small cell lung cancer NCI-H226; type: cell-based, human; conditions: NCI-H226
# U251 = assay: NCI-60 SRB screen: CNS cancer U251; type: cell-based; conditions: Homo sapiens, U251
# T-47D = assay: NCI-60 SRB screen: breast cancer T-47D; type: cell-based, human; conditions: T-47D
# SR = assay: NCI-60 SRB screen: leukemia SR; type: cell-based; conditions: Homo sapiens, 48 h
# NCI/ADR-RES = assay: NCI-60 SRB screen: ovarian cancer NCI/ADR-RES; type: cell-based, human
# HCT-116 = assay: NCI-60 SRB screen: colon cancer HCT-116; type: cell-based; conditions: Homo sapiens, 48 h, HCT-116
# 786-0 = assay: NCI-60 SRB screen: renal cancer 786-0; type: cell-based, human; conditions: 786-0
# CAKI-1 = assay: NCI-60 SRB screen: renal cancer CAKI-1; type: cell-based, human; conditions: CAKI-1
# Colon Cancer subpanel = assay: NCI-60 screen, subpanel Colon Cancer
# MALME-3M = assay: NCI-60 SRB screen: melanoma MALME-3M; type: cell-based, human; conditions: MALME-3M
# Ovarian Cancer subpanel = assay: NCI-60 screen, subpanel Ovarian Cancer
# SK-MEL-2 = assay: NCI-60 SRB screen: melanoma SK-MEL-2; type: cell-based, human; conditions: SK-MEL-2
# [1] = tested on: 60 human tumor cell lines; assay: cells
# HOP-62 = assay: NCI-60 SRB screen: non-small cell lung cancer HOP-62; type: cell-based, human; conditions: HOP-62
# HCT-15 = assay: NCI-60 SRB screen: colon cancer HCT-15; type: cell-based, human; conditions: HCT-15
# SNB-75 = assay: NCI-60 SRB screen: CNS cancer SNB-75; type: cell-based, human; conditions: SNB-75
# OVCAR-8 = assay: NCI-60 SRB screen: ovarian cancer OVCAR-8; type: cell-based, human; conditions: OVCAR-8
# COLO 205 = assay: NCI-60 SRB screen: colon cancer COLO 205; type: cell-based, human; conditions: COLO 205
# HS 578T = assay: NCI-60 SRB screen: breast cancer HS 578T; type: cell-based, human; conditions: HS 578T
# Prostate cancer subpanel = assay: NCI-60 screen, subpanel Prostate cancer
# LOX IMVI = assay: NCI-60 SRB screen: melanoma LOX IMVI; type: cell-based, human
# SF-268 = assay: NCI-60 SRB screen: CNS cancer SF-268; type: cell-based, human; conditions: SF-268
# Breast cancer subpanel = assay: NCI-60 screen, subpanel Breast cancer
# MCF7 = assay: NCI-60 SRB screen: breast cancer MCF7; type: cell-based; conditions: Homo sapiens, 48 h, MCF7
# CNS cancer subpanel = assay: NCI-60 screen, subpanel CNS cancer
# TK-10 = assay: NCI-60 SRB screen: renal cancer TK-10; type: cell-based, human; conditions: TK-10
# [2] = single dose 10 µM, read-out: Percentage Cell Growth
# [3] = five concentrations, SRB, read-out: GI50
# [4] = Homo sapiens, five concentrations, 48 h, SRB, read-out: GI50
compound,measurement,setting,value
C=C(C)[C@@H]1CC[C@]2(C(=O)NCCNCCNCCN)CC[C@]3(C)[C@H](CC[C@@H]4[C@@]5(C)CCC(=O)C(C)(C)[C@@H]5CC[C@]43C)[C@@H]12 [Compound 11],activity at 10 µM,SW-620; [2],-76.7%
same,GI50,SW-620; [3],7.91 µM
same,Percentage Cell Growth,BT-549; single dose 10 µM,58.31%
same,GI50,BT-549; [4],8.91 µM
same,activity at 10 µM,"MDA-MB-231/ATCC; MDA-MB-231/ATCC, single dose 10 µM, read-out: Percentage Cell Growth",-92.4%
same,GI50,"MDA-MB-231/ATCC; MDA-MB-231, MDA-MB-31/ATCC, five concentrations, SRB, read-out: GI50",8.03 µM
same,GI50,OVCAR-3; [4],7.65 µM
same,Percentage Cell Growth,OVCAR-3; single dose 10 µM,−72.48%
same,GI50,SK-MEL-5; [4],6.98 µM
same,Percentage Cell Growth,SK-MEL-5; single dose 10 µM,−86.18%
same,GI50,SK-OV-3; [4],10.6 µM
same,Percentage Cell Growth,SK-OV-3; single dose 10 µM,70.49%
same,GI50,SK-MEL-28; [4],8.49 µM
same,Percentage Cell Growth,SK-MEL-28; single dose 10 µM,−73.91%
same,GI50,UACC-62; [4],8.96 µM
same,Percentage Cell Growth,UACC-62; single dose 10 µM,−77.94%
same,GI50,NCI-H226; [4],7.74 µM
same,Percentage Cell Growth,NCI-H226; single dose 10 µM,74.30%
same,activity at 10 µM,"U251; U-251, 48 h, single dose 10 µM, read-out: Percentage Cell Growth",-81.8%
same,GI50,"U251; U-251, five concentrations, 48 h, SRB, read-out: GI50",7.34 µM
same,GI50,"T-47D; Homo sapiens, T47D, five concentrations, 48 h, SRB, read-out: GI50",7.52 µM
same,Percentage Cell Growth,T-47D; single dose 10 µM,−4.36%
same,activity at 10 µM,SR; [2],4.96%
same,GI50,SR; [3],5.91 µM
same,GI50,NCI/ADR-RES; [4],8.41 µM
same,Percentage Cell Growth,NCI/ADR-RES; single dose 10 µM,−73.33%
same,activity at 10 µM,HCT-116; [2],-80.7%
same,GI50,HCT-116; [3],6.65 µM
same,Percentage Cell Growth,786-0; single dose 10 µM,−84.46%
same,GI50,786-0; [4],7.8 µM
same,Percentage Cell Growth,CAKI-1; single dose 10 µM,−8.79%
same,GI50,CAKI-1; [4],5.87 µM
same,"MID b, average sensitivity of all cell line of particular subpanel",Colon Cancer subpanel,7.68 µM
same,"Selectivity, ratio MID a: MID b",Colon Cancer subpanel,1.19
same,GI50,MALME-3M; [4],7.4 µM
same,Percentage Cell Growth,MALME-3M; single dose 10 µM,−72.82%
same,"MID b, average sensitivity of all cell line of particular subpanel",Ovarian Cancer subpanel,8.24 µM
same,"Selectivity, ratio MID a: MID b",Ovarian Cancer subpanel,1.11
same,GI50,SK-MEL-2; [4],> 50 µM
same,Percentage Cell Growth,SK-MEL-2; single dose 10 µM,56.36%
same,GI50,[1]; read-out: GI50 ranges against all panels of NCI60,5.6 to 50 µM
same,GI50,"[1]; read-out: MID a, average sensitivity of all cell line (GI50-MID)",9.17 µM
same,Percentage Cell Growth,HOP-62; single dose 10 µM,43.09%
same,GI50,HOP-62; [4],7.91 µM
same,Percentage Cell Growth,HCT-15; single dose 10 µM,−36.56%
same,GI50,HCT-15; [4],7.65 µM
same,GI50,SNB-75; [4],6.26 µM
same,Percentage Cell Growth,SNB-75; single dose 10 µM,−41.55%
same,GI50,OVCAR-8; [4],8.41 µM
same,Percentage Cell Growth,OVCAR-8; single dose 10 µM,−75.03%
same,Percentage Cell Growth,COLO 205; single dose 10 µM,−47.48%
same,GI50,COLO 205; [4],8.74 µM
same,Percentage Cell Growth,HS 578T; single dose 10 µM,47.76%
same,GI50,HS 578T; [4],8.3 µM
same,"MID b, average sensitivity of all cell line of particular subpanel",Prostate cancer subpanel,6.87 µM
same,"Selectivity, ratio MID a: MID b",Prostate cancer subpanel,1.33
same,GI50,LOX IMVI; [4],8.72 µM
same,Percentage Cell Growth,LOX IMVI; single dose 10 µM,−68.23%
same,GI50,SF-268; [4],7.53 µM
same,Percentage Cell Growth,SF-268; single dose 10 µM,−38.68%
same,"MID b, average sensitivity of all cell line of particular subpanel",Breast cancer subpanel,8.04 µM
same,"Selectivity, ratio MID a: MID b",Breast cancer subpanel,1.14
same,activity at 10 µM,MCF7; [2],-58%
same,GI50,MCF7; [3],7.38 µM
same,"MID b, average sensitivity of all cell line of particular subpanel",CNS cancer subpanel,7.76 µM
same,"Selectivity, ratio MID a: MID b",CNS cancer subpanel,1.18
same,GI50,TK-10; [4],10.1 µM
same,Percentage Cell Growth,TK-10; single dose 10 µM,−77.68%
